In one test the target is BCL-2 (Homo sapiens (Human), UniProt P10415). In words: BCL-2 competition binding (fluorescence polarization) assay. Particulars: read-out: BCL2 IC50. The method, then:
Biological Example 1: BCL-2 Competition Binding (Fluorescence Polarization) Assay
The fluorescence-labeled 23 amino acid peptide BH3 was purchased from CalBiochem ([…]). […] This binding assay was performed in 96-well plate and with each assay contained 15 and 30 nM of labeled peptide and purified BCL-2 protein (purchased from R&D Systems, Inc). The assay buffer contained 20 mM Hepes (pH 7.0), 50 mM KCl, 5 mM MgCl2, 20 mM Na2MoO4, 0.1 mg/ml Bovine Gamma Globulin and 0.01% NP40. Compounds were diluted in DMSO and added to the final assay with concentration range from 20 μM to 2 nM. The polarization degree (mP) value was determined by BioTek Synergy II with background subtraction after 3 hours of incubation at room temperature. IC50 was calculated using Prism software with sigmoidal dose-response curve fitting. ABT-737 was used as reference compound. Such assays, carried out with a range of doses of test compounds, allowed the determination of an approximate IC50 value.
In general terms: In fluorescence polarisation assays a small probe gives low polarisation when free and higher when bound to something large.

Test [1] has as its system BCL-2-dependent acute lymphoblastic leukemia (ALL) cell line RS4;11. In words: In vitro anti-proliferation assay (ATPlite luminescence) in RS4;11. The settings on record: RS4;11 cells, about 72 hours, medium with 5% FBS or 10% normal human serum. It counts as cell-based. The method, then: Cell antiproliferation was assayed by PerkinElmer ATPlite™ Luminescence Assay System. Briefly, the various test cancer cell lines were plated at a density of about 1×10^4 cells per well in Costar 96-well plates, and were incubated with different concentrations of compounds for about 72 hours in medium supplemented with 5% FBS or 10% normal human serum (NHS). One lyophilized substrate solution vial was then reconstituted by adding 5 mL of substrate buffer solution, and was agitated gently until the solution was homogeneous. About 50 μL of mammalian cell lysis solution was added to 100 μL of cell suspension per well of a microplate, and the plate was shaken for about five minutes in an orbital shaker at 700 rpm. This procedure was used to lyse the cells and to stabilize the ATP. Next, 50 μL substrate solution was added to the wells and microplate was shaken for five minutes in an orbital shaker at 700 rpm. Finally, the luminescence was measured by a PerkinElmer TopCount® Microplate Scintillation Counter. Such assays, carried out with a range of doses of test compounds, allowed the determination of the cellular anti-antiproliferative IC50 of the compounds of the present invention.
(In general: ATP-based viability assays read luminescence as a measure of living cells.)

[2] abbreviates: fluorescein-labeled BH3 peptide 15 nM, purified BCL-2 protein 30 nM, 3 hours incubation at room temperature.

Read-outs that look alike come from different tables or passages of the source.

BCL-2, sequence (P10415 whole entry): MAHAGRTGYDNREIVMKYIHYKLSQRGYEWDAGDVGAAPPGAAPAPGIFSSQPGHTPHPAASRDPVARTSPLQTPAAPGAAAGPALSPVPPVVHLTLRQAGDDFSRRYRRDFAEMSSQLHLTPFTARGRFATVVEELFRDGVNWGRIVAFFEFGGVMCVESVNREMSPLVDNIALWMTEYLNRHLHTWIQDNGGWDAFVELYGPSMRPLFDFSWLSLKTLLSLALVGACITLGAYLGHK

As to `CC1(C)CCC(CN2CCN(c3ccc(C(=O)NS(=O)(=O)c4ccc(NCCOCCOCCOCCNc5cccc6c5C(=O)N(C5CCC(=O)NC5=O)C6=O)c([N+](=O)[O-])c4)c(N4CCCOc5nc6[nH]ccc6cc54)c3)CC2)=C(c2ccc(Cl)cc2)C1` (stereo not drawn) [Example 53, 4-(4-[[2-(4-chlorophenyl)-4,4-dimethylcyclohex-1-en-1-yl]methyl]piperazin-1-yl)-N-[4-(12-[[2-(2,6-dioxopiperidin-3-yl)-1,3-dioxoisoindol-4-yl]amino]-4,7,10-trioxa-1-azadodecan-1-yl)-3-nitrobenzenesulfonyl]-2-[14-oxa-2,4,10-triazatricyclo[7.5.0.0^[3,7]]tetradeca-1(9),2,5,7-tetraen-10-yl]benzamide], the IC50 was 1.2 nM at BCL-2 (setting [2]) and 79 nM in test [1].

Turning to `Cc1ncsc1-c1ccc(CNC(=O)[C@@H]2C[C@@H](O)CN2C(=O)[C@@H](NC(=O)CCOCCOCCOCCN2CCN(CCNc3ccc(S(=O)(=O)NC(=O)c4ccc(N5CCN(CC6=C(c7ccc(Cl)cc7)CC(C)(C)CC6)CC5)cc4N4CCCOc5nc6[nH]ccc6cc54)cc3[N+](=O)[O-])CC2)C(C)(C)C)cc1` [Example 54], the IC50 on BCL-2 (setting [2]) came out at 0.6 nM; in test [1] it was 49.6 nM.

As for `Cc1ncsc1-c1ccc(CNC(=O)[C@@H]2C[C@@H](O)CN2C(=O)[C@@H](NC(=O)CCOCCOCCOCCOCCOCCNc2ccc(S(=O)(=O)NC(=O)c3ccc(N4CCN(CC5=C(c6ccc(Cl)cc6)CC(C)(C)CC5)CC4)cc3N3CCCOc4nc5[nH]ccc5cc43)cc2[N+](=O)[O-])C(C)(C)C)cc1` [Example 55, (2S,4R)-1-[(2S)-2-[1-[(4-[[4-(4-[[2-(4-chlorophenyl)-4,4-dimethylcyclohex-1-en-1-yl]methyl]piperazin-1-yl)-2-[14-oxa-2,4,10-triazatricyclo[7.5.0.0^[3,7]]tetradeca-1(9),2,5,7-tetraen-10-yl]phenyl]formamidosulfonyl]-2-nitrophenyl)amino]-3,6,9,12,15-pentaoxaoctadecan-18-amido]-3,3-dimethylbutanoyl]-4-hydroxy-N-[[4-(4-methyl-1,3-thiazol-5-yl)phenyl]methyl]pyrrolidine-2-carboxamide], the IC50 on BCL-2 (setting [2]) was 1.1 nM; in test [1], 75 nM.

As for `Cc1ncsc1-c1ccc(CNC(=O)[C@@H]2C[C@@H](O)CN2C(=O)[C@@H](NC(=O)CCOCCOCCN2CCN(CCNc3ccc(S(=O)(=O)NC(=O)c4ccc(N5CCN(CC6=C(c7ccc(Cl)cc7)CC(C)(C)CC6)CC5)cc4N4CCCOc5nc6[nH]ccc6cc54)cc3[N+](=O)[O-])CC2)C(C)(C)C)cc1` [Example 56], the IC50 stood at 0.4 nM on BCL-2 (setting [2]) and 63.7 nM in test [1].

As to `Cc1ncsc1-c1ccc(CNC(=O)[C@@H]2C[C@@H](O)CN2C(=O)[C@@H](NC(=O)CCOCCOCCOCCOCCNc2ccc(S(=O)(=O)NC(=O)c3ccc(N4CCN(CC5=C(c6ccc(Cl)cc6)CC(C)(C)CC5)CC4)cc3N3CCCOc4nc5[nH]ccc5cc43)cc2[N+](=O)[O-])C(C)(C)C)cc1` [Example 57, (2S,4R)-1-[(2S)-2-[1-[(4-[[4-(4-[[2-(4-chlorophenyl)-4,4-dimethylcyclohex-1-en-1-yl]methyl]piperazin-1-yl)-2-[14-oxa-2,4,10-triazatricyclo[7.5.0.0^[3,7]]tetradeca-1(9),2,5,7-tetraen-10-yl]phenyl]formamidosulfonyl]-2-nitrophenyl)amino]-3,6,9,12-tetraoxapentadecan-15-amido]-3,3-dimethylbutanoyl]-4-hydroxy-N-[[4-(4-methyl-1,3-thiazol-5-yl)phenyl]methyl]pyrrolidine-2-carboxamide], the IC50 at BCL-2 (setting [2]) came out at 0.5 nM; in test [1] it was 68 nM.

As to `Cc1ncsc1-c1ccc(CNC(=O)[C@@H]2C[C@@H](O)CN2C(=O)[C@@H](NC(=O)CCOCCN2CCN(CCNc3ccc(S(=O)(=O)NC(=O)c4ccc(N5CCN(CC6=C(c7ccc(Cl)cc7)CC(C)(C)CC6)CC5)cc4N4CCCOc5nc6[nH]ccc6cc54)cc3[N+](=O)[O-])CC2)C(C)(C)C)cc1` [Example 58], the IC50 stood at 0.3 nM at BCL-2 (setting [2]) and 102 nM in test [1].

`Cc1ncsc1-c1ccc(CNC(=O)[C@@H]2C[C@@H](C)CN2C(=O)[C@@H](NC(=O)CCOCCOCCOCCNc2ccc(S(=O)(=O)NC(=O)c3cc(N4CCN(CC5=C(c6ccc(Cl)cc6)CC(C)(C)CC5)CC4)ccc3N3CCCOc4nc5[nH]ccc5cc43)cc2[N+](=O)[O-])C(C)(C)C)cc1` [Example 59, (2S,4R)-1-[(2S)-2-[3-[2-(2-[2-[(4-[[5-(4-[[2-(4-chlorophenyl)-4,4-dimethylcyclohex-1-en-1-yl]methyl]piperazin-1-yl)-2-[14-oxa-2,4,10-triazatricyclo[7.5.0.0^[3,7]]tetradeca-1(9),2,5,7-tetraen-10-yl]phenyl]formamidosulfonyl]-2-nitrophenyl)amino]ethoxy]ethoxy)ethoxy]propanamido]-3,3-dimethylbutanoyl]-4-methyl-N-[[4-(4-methyl-1,3-thiazol-5-yl)phenyl]methyl]pyrrolidine-2-carboxamide]: the IC50 was 1.1 nM on BCL-2 (setting [2]) and 84 nM in test [1].

Turning to `CC1(C)CCC(CN2CCN(c3ccc(C(=O)NS(=O)(=O)c4ccc(NCC5CCOCC5)c([N+](=O)[O-])c4)c(N4CCCCOc5nc6[nH]ccc6cc54)c3)CC2)=C(c2ccc(Cl)cc2)C1` [Example 69, 4-(4-[[2-(4-chlorophenyl)-4,4-dimethylcyclohex-1-en-1-yl]methyl]piperazin-1-yl)-N-(3-nitro-4-[[(oxan-4-yl)methyl]amino]benzenesulfonyl)-2-[15-oxa-2,4,10-triazatricyclo[7.6.0.0^[3,7]]pentadeca-1(9),2,5,7-tetraen-10-yl]benzamide], the half-maximal inhibitory concentration (IC50) on BCL-2 was 0.6 nM; in test [1], 28.6 nM.

As for `Cn1c(=O)c2nc3[nH]ccc3cc2n1-c1cc(N2CCN(CC3=C(c4ccc(Cl)cc4)CC(C)(C)CC3)CC2)ccc1C(=O)NS(=O)(=O)c1ccc(NC[C@H]2COCCO2)c([N+](=O)[O-])c1` [Example 70, 4-(4-[[2-(4-chlorophenyl)-4,4-dimethylcyclohex-1-en-1-yl]methyl]piperazin-1-yl)-N-(4-[[(2S)-1,4-dioxan-2-ylmethyl]amino]-3-nitrobenzenesulfonyl)-2-[11-methyl-12-oxo-2,4,10,11-tetraazatricyclo[7.3.0.0^[3,7]]dodeca-1,3(7),5,8-tetraen-10-yl]benzamide], the values for the IC50 (on BCL-2 (setting [2]); in test [1]) were 0.1 nM and 186 nM, respectively.

`CC1(C)CCC(CN2CCN(c3ccc(C(=O)NS(=O)(=O)c4ccc(NC[C@H]5COCCO5)c([N+](=O)[O-])c4)c(-n4c5ccncc5c5nc6[nH]ccc6cc54)c3)CC2)=C(c2ccc(Cl)cc2)C1` [Example 71, 4-(4-[[2-(4-chlorophenyl)-4,4-dimethylcyclohex-1-en-1-yl]methyl]piperazin-1-yl)-N-(4-[[(2S)-1,4-dioxan-2-ylmethyl]amino]-3-nitrobenzenesulfonyl)-2-[4,8,14,16-tetraazatetracyclo[7.7.0.0^[2,7].0[11,15]]hexadeca-1(16),2(7),3,5,9,11(15),12-heptaen-8-yl]benzamide]: the IC50 on BCL-2 (setting [2]) turned out to be 0.6 nM; in test [1], 192 nM.

On to `CC1(C)CC(c2ccc(Cl)cc2)=C(CN2CCN(c3ccc(C(=O)NS(=O)(=O)c4ccc(NC[C@H]5COCCO5)c([N+](=O)[O-])c4)c(N4CCCOc5nc6[nH]ccc6cc54)c3)CC2)CO1` [Example 72, 4-(4-[[4-(4-chlorophenyl)-6,6-dimethyl-2,5-dihydropyran-3-yl]methyl]piperazin-1-yl)-N-(4-[[(2S)-1,4-dioxan-2-ylmethyl]amino]-3-nitrobenzenesulfonyl)-2-[14-oxa-2,4,10-triazatricyclo[7.5.0.0^[3,7]]tetradeca-1(9),2,5,7-tetraen-10-yl]benzamide], for which the IC50 at BCL-2 turned out to be 0.01 nM; in test [1], 0.3 nM.

Regarding `CC1(C)CCC(c2ccc(Cl)cc2)=C(CN2CCN(c3ccc(C(=O)NS(=O)(=O)c4ccc(NC[C@H]5COCCO5)c([N+](=O)[O-])c4)c(N4CCCOc5nc6[nH]ccc6cc54)c3)CC2)C1` [Example 73, 4-(4-[[2-(4-chlorophenyl)-5,5-dimethylcyclohex-1-en-1-yl]methyl]piperazin-1-yl)-N-(4-[[(2S)-1,4-dioxan-2-ylmethyl]amino]-3-nitrobenzenesulfonyl)-2-[14-oxa-2,4,10-triazatricyclo[7.5.0.0^[3,7]]tetradeca-1(9),2,5,7-tetraen-10-yl]benzamide], the values for the IC50 (at BCL-2 (setting [2]); in test [1]) were 0.9 nM and 3.1 nM, respectively.

By IC50 is commonly meant the concentration at which inhibition is half-maximal.

(Values after patent US12220419B2, “BCL-2 inhibitors” (Newave Pharmaceutical Inc., priority 2018, dated 2025).)
